Test system: male participants
Experiment: Male participants rated strength of erections and orgasms on a scale of 1 to 10 after ingesting PDE5 inhibitor and cannabis/THC
Type: in vivo, human

Measured: PDE5 inhibiting effect of THC taken alone

Procedure: Male participants rated the strength of their erections and orgasms, and female participants rated the strength of their threshold desire, arousal and orgasms, on a scale of 1 to 10.
This first time, the subject took the full prescription dose of sildenafil (100 mg) in pill form together with an infused cannabis edible containing 20 mg of THC.
The subject in Examples 1 and 2 further reduced the dosage of sildenafil to 40 mg, 30 mg, and 20 mg in stages, together with cannabis dosages that delivered 20 mg, 15 mg, or 10 mg of THC.
A test subject consumed ingestible dosage forms of cannabis and sildenafil. This first time, the subject took 50% of the full prescription dose of sildenafil (50 mg) in pill form together with an infused cannabis edible containing 20 mg of THC.
The subject in Example 4 further reduced the dosage of sildenafil to 40 mg and used the same cannabis dosage that delivered 20 mg of THC.
The subject in Examples 4 and 5 further reduced the dosage of sildenafil to 30 mg, 20 mg, and 10 mg in stages, together with cannabis dosages that delivered 20 mg, 15 mg, or 10 mg of THC.
A test subject consumed ingestible dosage forms of cannabis and sildenafil. This first time, the subject took 60% of the full prescription dose of sildenafil (60 mg) in pill form together with an infused cannabis edible containing 25 mg of THC.
The test subject in Example 7 further reduced the dosage of sildenafil to 40 mg and used a cannabis dosage that delivered 20 mg of THC.
The subject in Examples 7 and 8 further reduced the dosage of sildenafil to 30 mg, 20 mg, and 10 mg in stages, together with cannabis dosages that delivered 20 mg, 15 mg, or 10 mg of THC.

CCCCCc1cc(O)c2c(c1)OC(C)(C)[C@@H]1CCC(C)=C[C@@H]21 [THC, tetrahydrocannabinol]
no noticeable PDE5 inhibiting effect: Example 1: person | Example 4: person | Example 7: person | Example 10: person

Reference: patent publication US20240408116A1, “COMPOSITIONS FOR ENHANCING SEXUAL PLEASURE WITH REDUCED PHAR[…] OF PDE5 INHIBITOR” (priority 2023, published 2024)
